Source: US4051241A
Where two headings read alike, the source gives them in different places.

Key:
[1] = cited from earlier work
HPA axis [2] = test system: HPA axis
Procedure: (§1) Each of 39 normal human subjects was hospitalized on a clinical pharmacology ward for the entire time (14 days) while the procedures described herein were carried out.
(§2) The following tests were performed, except as otherwise indicated in Table II below, on each of the subjects:
Metyrapone (METP) test, according to a modification of the method described by Liddle et al., J. Clin. Endocr. […] The urine of each of the subjects was collected at 6 hour intervals during the entire 14 day period and analyzed for 17-ketogenic steroids for the METP test.
On each of days 5-11 the various corticosteroids were orally administered, all subjects receiving their daily single dosage of corticosteroids at 6 A.M. Tabulated below, in Table II, are the numbers of subjects receiving a particular dosage per day of a particular corticosteroid.

HPA axis [3] = conditions: oral, 6 A.M., 7 days
Procedure: as §1, §2
On each of days 5-11 the various corticosteroids were orally administered, all subjects receiving their daily single dosage of corticosteroids at 6 A.M. Tabulated below, in Table II, are the numbers of subjects receiving a particular dosage per day of a particular corticosteroid. The dosage regimens chosen reflect the relative potencies of the corticosteroids tested.

[4] = Metabolic effects: loss of urinary nitrogen and calcium
Procedure: Four normal subjects were admitted to a hospital metabolic ward and maintained on a constant diet for days 1-3, the equilibration period.
On days 4-9, the control period, the subjects were also kept on the same constant diet and their urine was collected every 24 hours and assayed for nitrogen and calcium, determined fluorometrically using the method of Henry, R. J., Clinical Chemistry Principles and Techniques, 3rd Edition, p.
On days 10-15, the treatment period, the subjects were still kept on the same constant diet, and 20 mg. (three subjects, 1, 2 and 3) and 12.5 mg. (one subject, 4) of 6-chloro-11β,17α,21-trihydroxypregna-1,4-diene-3,20-dione were daily orally administered in a single dose. The urine of the subjects was collected every 24 hours and assayed for nitrogen and calcium.
After 8 weeks had elapsed, subjects 1 and 2 were readmitted to the hospital metabolic ward.

HPA axis [5] = conditions: in vivo
Procedure: 1. Fasting plasma cortisol level at 6 A.M. on each of days 1-14, according to the method of Murphy et al., J. Clin. Endocr.
3. […] The urine of each of the subjects was collected at 6 hour intervals during the entire 14 day period and analyzed for 17-ketogenic steroids for the METP test.

[6] = human, in vivo
Procedure: The plasma of each volunteer was analyzed for organic solvent extractable radioactivity over a 24 hour period.

[7] = described in U.S. Pat. No. 3,232,965; cited from earlier work

In the case of `C[C@]12C=CC(=O)C=C1CC[C@H]1[C@@H]3C[C@@H](O)[C@](O)(C(=O)CO)[C@@]3(C)C[C@H](O)[C@@]12F` [9α-Fluoro-16α-hydroxyprednisolone, 9α-fluoro-11β,16α,17α,21-tetrahydroxypregna-1,4-diene-3,20-dione], the “Plasma Half-Life” value ([1]; in vivo) is given as ≥ 3.33 h.
With `C[C@H]1C[C@H]2[C@@H]3CCC4=CC(=O)C=C[C@]4(C)[C@@]3(F)[C@@H](O)C[C@]2(C)[C@@]1(O)C(=O)CO` [9α-Fluoro-16β-methylprednisolone] the “subjects showing a normal metyrapone test” value (HPA axis [2]; in vivo) was “none”.
With `C[C@]12C=CC(=O)C=C1CC[C@@H]1[C@@H]2[C@@H](O)C[C@@]2(C)[C@H]1CC[C@]2(O)C(=O)CO` [Prednisolone] the “Normal/Total A.M. Plasma Cortisol” value (HPA axis [3]; 5.0 mg per day) was 3/3, the “Normal/Total A.M. Plasma Cortisol” value (HPA axis [3]; 10.0 mg per day) was 3/3 and the “loss of nitrogen and calcium, comparison of 6-chloro compound with prednisolone” value ([4]; equipotent doses, subjects 1 and 2) was “greater loss of both nitrogen and calcium”. The “Normal/Total METP Response” value (HPA axis [2]; 25.0 mg per day, oral, 6 A.M., 7 days) was 3/3 and the “Plasma Half-Life” value ([1]; Melby, Ann. Int. Med., 81:505-512, 1974) was ≥ 3.33 h.
In the case of `C[C@]12C=CC(=O)C=C1C(Cl)=C[C@@H]1[C@@H]2[C@@H](O)C[C@@]2(C)[C@H]1CC[C@]2(O)C(=O)CO`, the “unwanted side-effects associated with HPA axis suppression” value (HPA axis [5]) is reported as “not present”, the “loss of nitrogen and calcium, comparison of 6-chloro compound with prednisolone” value ([4]; in vivo) is reported as “minimized” and the Plasma Half-Life [6] is reported as 2 h. The “half-life, volunteer No. 1” value [6] was “approximately 110 minutes”, the “half-life, volunteer No. 2” value [6] was “approximately 125 minutes” and the action [7] was “cortisone like (anti-inflammatory) action”.
